Activity and fold change (FC) data for twelve molecules are collected here from ChEMBL document CHEMBL3997838, “Chemical constituents from Sophora tonkinensis and their glucose transporter 4 translocation activities” (Bioorg Med Chem Lett, 2017).

Calls of active or inactive are those of the source. The calls are words filed in the database; no cut-off is given here.

The target in the first experiment is T1, Solute carrier family 2, facilitated glucose transporter member 4 (Rattus norvegicus) (UniProt P19357).
T1 sequence (whole entry): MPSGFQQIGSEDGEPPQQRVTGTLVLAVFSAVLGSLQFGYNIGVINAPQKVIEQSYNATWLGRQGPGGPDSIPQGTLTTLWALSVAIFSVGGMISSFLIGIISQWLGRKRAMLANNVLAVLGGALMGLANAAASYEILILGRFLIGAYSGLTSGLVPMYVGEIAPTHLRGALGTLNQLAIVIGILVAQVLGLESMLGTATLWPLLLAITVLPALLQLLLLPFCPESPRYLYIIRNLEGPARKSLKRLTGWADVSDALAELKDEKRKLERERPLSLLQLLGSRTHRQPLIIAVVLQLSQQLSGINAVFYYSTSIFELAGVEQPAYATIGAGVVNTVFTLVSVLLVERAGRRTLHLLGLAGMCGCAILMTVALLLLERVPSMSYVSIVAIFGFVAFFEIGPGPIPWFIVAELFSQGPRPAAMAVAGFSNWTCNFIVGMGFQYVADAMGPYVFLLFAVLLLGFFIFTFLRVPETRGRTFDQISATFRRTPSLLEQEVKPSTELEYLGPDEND
Nature of the experiment: Enhancement of GLUT4 translocation at plasma membrane of rat L6 cells expressing pIRAP-mOrange at 10 uM after 30 mins by fluorescence assay relative to control.
Take `OC[C@H]1O[C@@H](Oc2ccc3c(c2)OC[C@H]2c4cc5c(cc4O[C@@H]32)OCO5)[C@H](O)[C@@H](O)[C@@H]1O`: the result was inactive.

As for `Oc1ccc2c(c1)OC[C@H]1c3cc4c(cc3O[C@@H]21)OCO4`, the result was inactive.

Turning to `CC(=O)OC[C@H]1O[C@@H](Oc2ccc3c(c2)OC[C@H]2c4cc5c(cc4O[C@@H]32)OCO5)[C@H](O)[C@@H](O)[C@@H]1O`, the outcome was inactive.

Regarding `CC(C)=CCc1c(O)cc(O)c2c1OC[C@H]1c3cc4c(cc3O[C@@H]21)OCO4`, the fold change (FC) came to 0.79.

As for `CC(C)=CCc1cc([C@@H]2CC(=O)c3ccc(O)c(CC=C(C)C)c3O2)cc2c1OC(C)(C)C=C2`, the fold change (FC) was 1.35 to 2.75.

`COc1ccc2c(c1)O[C@H]1c3ccc(O)cc3OC[C@@H]21`: the result was inactive.

Take `CC(C)=CCc1cc2c(c(CC=C(C)C)c1O)O[C@H](c1ccc(O)cc1)CC2=O`: the fold change (FC) was 1.35 to 2.75.

`CC(C)=CCc1c(O)c(CC=C(C)C)c2oc(-c3ccc(O)cc3)c(O)c(=O)c2c1O`: the fold change (FC) lay within 1.35 to 2.75.

Take `CC(C)=CCc1cc([C@@H]2CC(=O)c3ccc(O)c(CC=C(C)C)c3O2)cc(CC=C(C)C)c1O`: the fold change (FC) came to 2.75.

For the molecule `CC(C)=CCc1cc([C@@H]2CC(=O)c3ccc(O)c(CC=C(C)C)c3O2)ccc1O`, the fold change (FC) lay in the range of 1.35 to 2.75.

On to `O=c1c(O)c(-c2ccc(O)c(O)c2)oc2cc(O)cc(O)c12`, for which the result was inactive.

With `CC(C)=CCc1c2c(cc3c1O[C@H](c1ccc(O)cc1O)CC3=O)C=CC(C)(C)O2`, the fold change (FC) lay in the range of 1.35 to 2.75.

The target in another experiment is T1, Solute carrier family 2, facilitated glucose transporter member 4 (Rattus norvegicus). The experiment in a line: Enhancement of GLUT4 translocation at plasma membrane of rat L6 cells expressing pIRAP-mOrange at […] after 30 mins by laser-scanning confocal microscopic method relative to control.
Consider `CC(C)=CCc1cc([C@@H]2CC(=O)c3ccc(O)c(CC=C(C)C)c3O2)cc(CC=C(C)C)c1O`, for which the fold change (FC) was found to be 2.7.

Another experiment shares this target. The experiment in a line: Enhancement of GLUT4 translocation at plasma membrane of rat L6 cells expressing pIRAP-mOrange after 30 mins by laser-scanning confocal microscopic method.
With `CC(C)=CCc1cc([C@@H]2CC(=O)c3ccc(O)c(CC=C(C)C)c3O2)cc(CC=C(C)C)c1O`, the Activity result was “Dose-dependent effect”.
